What all share (type): cell-based
Experiment [1] concerns IFN-g secretion from T cells in human whole blood.
In the next experiment the target is hKv1.3 (Homo sapiens, UniProt P22001). Nature of the experiment: cell-based. Particulars: Kv1.3 (IWQ) IC50 (nM, Avg).
Experiment [2] has as its system IL-2 secretion from T cells in human whole blood. Particulars: read-out: WB (IL-2) IC50 (nM, Avg).
[3] abbreviates: read-out: WB (IFNg) IC50 (nM, Avg).

Where two headings read alike, the source gives them in different places. Positions of bridges follow the written chain, without caps; N, C: chain ends. Residues, ends and D or L forms follow the SMILES beside them.

Sequence of hKv1.3 (P22001 whole entry): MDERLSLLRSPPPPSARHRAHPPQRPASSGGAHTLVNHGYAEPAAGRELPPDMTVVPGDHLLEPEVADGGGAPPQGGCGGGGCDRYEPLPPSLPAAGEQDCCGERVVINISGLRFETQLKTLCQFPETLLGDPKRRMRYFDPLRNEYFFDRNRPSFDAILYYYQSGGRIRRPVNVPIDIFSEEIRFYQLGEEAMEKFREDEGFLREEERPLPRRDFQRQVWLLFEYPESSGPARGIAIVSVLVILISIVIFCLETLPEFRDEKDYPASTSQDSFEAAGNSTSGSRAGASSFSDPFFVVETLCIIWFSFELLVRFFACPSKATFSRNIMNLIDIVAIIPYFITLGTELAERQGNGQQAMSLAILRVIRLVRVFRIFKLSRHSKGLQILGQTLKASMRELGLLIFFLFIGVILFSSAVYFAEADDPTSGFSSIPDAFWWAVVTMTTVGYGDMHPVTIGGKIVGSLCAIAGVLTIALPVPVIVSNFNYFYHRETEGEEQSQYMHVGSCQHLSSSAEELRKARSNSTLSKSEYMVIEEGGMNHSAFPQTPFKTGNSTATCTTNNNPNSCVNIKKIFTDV

As to `CC[C@H](C)[C@@H]1NC(=O)[C@@H](NC(=O)[C@H](CCC(=O)O)NC(=O)[C@@H](N)CCCNC(=N)N)CSSC[C@@H](C(=O)O)NC(=O)[C@H]([C@@H](C)O)NC(=O)CNC(=O)[C@@H]2CSSC[C@@H]3NC(=O)[C@H](CCC(N)=O)NC(=O)[C@H](Cc4ccccc4)NC(=O)[C@H](C)NC(=O)[C@H]([C@@H](C)O)NC(=O)[C@H](CSSC[C@H](NC(=O)[C@H](Cc4ccccc4)NC(=O)[C@H](CO)NC(=O)[C@H](CC(C)C)NC(=O)[C@H](CCCNC(=N)N)NC(=O)[C@H](Cc4ccc(O)cc4)NC(=O)[C@H](CCCCN)NC(=O)[C@H](CCSC)NC(=O)[C@H](CO)NC(=O)[C@H](Cc4c[nH]cn4)NC(=O)[C@H](CCCCN)NC3=O)C(=O)N[C@@H](CCCNC(=N)N)C(=O)N[C@@H](CCCCN)C(=O)N[C@@H]([C@@H](C)O)C(=O)N2)NC(=O)[C@H](CCCNC(=N)N)NC(=O)[C@H](CO)NC(=O)[C@H](CCCCN)NC(=O)[C@@H]2CCCN2C(=O)[C@H]([C@@H](C)CC)NC(=O)[C@H]([C@@H](C)O)NC(=O)[C@H](CC(=O)O)NC1=O` [[Glu2]ShK], the IC50 was determined as 0.039 nM in experiment [1] (read-out: WB (IFNg) IC5- (nM, Avg)); 0.111 nM against hKv1.3; 0.029 nM in experiment [2].

On to `CC[C@H](C)[C@@H]1NC(=O)[C@H]([C@@H](C)O)NC(=O)[C@H](CC(=O)O)NC(=O)[C@H](CCC(=O)O)NC(=O)[C@@H](NC(=O)[C@H](CO)NC(=O)[C@@H](N)CCCNC(=N)N)CSSC[C@@H](C(N)=O)NC(=O)[C@H]([C@@H](C)O)NC(=O)CNC(=O)[C@@H]2CSSC[C@@H]3NC(=O)[C@H](CCCCN)NC(=O)[C@H](Cc4ccccc4)NC(=O)[C@H](C)NC(=O)[C@H]([C@@H](C)O)NC(=O)[C@H](CSSC[C@H](NC(=O)[C@H](Cc4ccccc4)NC(=O)[C@H](CO)NC(=O)[C@H](CC(C)C)NC(=O)[C@H](CCCNC(=N)N)NC(=O)[C@H](Cc4ccc(O)cc4)NC(=O)[C@H](CCCCN)NC(=O)[C@H](CCSC)NC(=O)[C@H](CO)NC(=O)[C@H](Cc4c[nH]cn4)NC(=O)[C@H](CCCNC(=N)N)NC3=O)C(=O)N[C@@H](CCCCN)C(=O)N[C@@H](CCCNC(=N)N)C(=O)N[C@@H]([C@@H](C)O)C(=O)N2)NC(=O)[C@H](CCCNC(=N)N)NC(=O)[C@H](CCC(=O)O)NC(=O)[C@H](CCC(=O)O)NC(=O)[C@@H]2CCCN2C1=O` [[Glu4,9,10; Lys16,29;Arg18, 30]ShK-amide] (H-RSCEDTIPEERCTAFKCRHSMKYRLSFCKRTCGTC-NH2; disulfide 3-35, 12-28, 17-32), for which the figures for the IC50 (in experiment [1] (setting [3]); at hKv1.3; in experiment [2]) were 0.513 nM, 0.059 nM and 0.204 nM, respectively.

For `CC[C@H](C)[C@@H]1NC(=O)[C@H]([C@@H](C)O)NC(=O)[C@H](CC(=O)O)NC(=O)[C@H](CCC(=O)O)NC(=O)[C@@H](NC(=O)[C@H](CO)NC(=O)[C@@H](N)CCCNC(=N)N)CSSC[C@@H](C(N)=O)NC(=O)[C@H]([C@@H](C)O)NC(=O)CNC(=O)[C@@H]2CSSC[C@@H]3NC(=O)[C@H](CCCCN)NC(=O)[C@H](Cc4ccccc4)NC(=O)[C@H](C)NC(=O)[C@H]([C@@H](C)O)NC(=O)[C@H](CSSC[C@H](NC(=O)[C@H](Cc4ccccc4)NC(=O)[C@H](CO)NC(=O)[C@H](CC(C)C)NC(=O)[C@H](CCCNC(=N)N)NC(=O)[C@H](Cc4ccc(O)cc4)NC(=O)[C@H](CCCCN)NC(=O)[C@H](CCSC)NC(=O)[C@H](CO)NC(=O)[C@H](Cc4c[nH]cn4)NC(=O)[C@H](CCCNC(=N)N)NC3=O)C(=O)N[C@@H](CCCCN)C(=O)N[C@@H](CCCNC(=N)N)C(=O)N[C@@H]([C@@H](C)O)C(=O)N2)NC(=O)[C@H](CCCNC(=N)N)NC(=O)[C@H](CO)NC(=O)[C@H](CCC(=O)O)NC(=O)[C@@H]2CCCN2C1=O` [[Glu4,9;Lys16,29;Arg18,30]ShK-amide] (H-RSCEDTIPESRCTAFKCRHSMKYRLSFCKRTCGTC-NH2; disulfide 3-35, 12-28, 17-32), the figures for the IC50 (in experiment [1] (setting [3]); against hKv1.3; in experiment [2]) were 0.345 nM, 0.062 nM and 0.151 nM, respectively.
